Where a SMILES comes first, the peptide text is derived from it. Bridges are numbered along the chain shown (N, C = ends). [ ]: non-standard residue; d: D form. R8 = C=CCCCCCC[C@@](C)(N)C(=O)O; S5 = C=CCCC[C@](C)(N)C(=O)O; Nle = CCCC[C@H](N)C(=O)O; Aib = CC(C)(N)C(=O)O

Usually MRT stands for the average time that molecules of a dose stay in the body. By Vss is commonly meant a proportionality between amount in the body and measured concentration, not a real space.

One data set can be described thus: Figure 6. The arrangement: AUC,all / AUC,inf: concentration or dose not given beside the values. From the text:
Table printed on a drawing sheet, Figure 6
First reader's note: The head SP-2 is printed shifted to the left of its column of values.
For `CCCC[C@H](NC(C)=O)C(=O)N[C@@H](CC(=O)O)C(=O)N[C@H](C(=O)N[C@@H](CC(N)=O)C(=O)NC(C)(C)C(=O)N[C@H](C(=O)N[C@@H](CC(C)C)C(=O)N[C@@]1(C)CCCC=CCCC[C@@](C)(C(=O)N[C@@H](C)C(=O)N[C@@H](C)C(=O)N[C@@H](CCC(N)=O)C(N)=O)NC(=O)[C@H](CCCCN)NC(=O)[C@H](CC(C)C)NC(=O)[C@H](Cc2ccccc2)NC1=O)[C@@H](C)O)C(C)C` [SP-9, Ac-NleDVNAibTL$FLK$AAQ-NH2] (Ac-[Nle]DVN[Aib]TL[S5]FLK[S5]AAQ-NH2; staple 8-12), the “AUC,all” value was 8190 ng·h/mL; the “AUC,inf” value was determined as 11950 ng·h/mL; the “Cl” value is 5.67 mL/min/kg; the “Cmax, obs” value was 9766 ng/mL. Further, the “MRT” value worked out at 1.41 h, the “T1/2” value came out at 1.59 h and the “Vss” value was 0.363 L/kg.
On to `CCCC[C@H](NC(C)=O)C(=O)N[C@@H](CC(=O)O)C(=O)N[C@H](C(=O)N[C@@H](CC(N)=O)C(=O)N1CCC[C@H]1C(=O)N[C@H](C(=O)N[C@@H](CC(C)C)C(=O)N[C@@]1(C)CCCC=CCCC[C@@](C)(C(=O)N[C@@H](C)C(=O)N[C@@H](C)C(=O)N[C@@H](CCC(N)=O)C(N)=O)NC(=O)[C@H](CCCCN)NC(=O)[C@H](CC(C)C)NC(=O)[C@H](Cc2ccccc2)NC1=O)[C@@H](C)O)C(C)C` [SP-10, Ac-NleDVNPTL$FLK$AAQ-NH2] (Ac-[Nle]DVNPTL[S5]FLK[S5]AAQ-NH2; staple 8-12), for which the “AUC,all” value was determined as 5770 ng·h/mL; the “AUC,inf” value was 5800 ng·h/mL; the “Cl” value is 8.85 mL/min/kg; the “Cmax, obs” value is on record as 11408 ng/mL. Also, the “MRT” value amounted to 0.55 h, the “T1/2” value worked out at 0.56 h and the volume of distribution (Vss) was 0.29 L/kg.
As to `CCCC[C@H](NC(C)=O)C(=O)N[C@@H](CC(=O)O)C(=O)N[C@H](C(=O)N[C@@H](CC(N)=O)C(=O)N1CCC[C@H]1C(=O)N[C@H](C(=O)N[C@@H](CC(C)C)C(=O)N[C@@H](CC(C)C)C(=O)N[C@@H](Cc1ccccc1)C(=O)N[C@@]1(C)CCCC=CCCC[C@@](C)(C(=O)N[C@@H](CCCNC(=N)N)C(N)=O)NC(=O)[C@H](C)NC(=O)[C@H](C(C)C)NC(=O)[C@H](CCCCN)NC1=O)[C@@H](C)O)C(C)C` [SP-11, Ac-NleDVNPTLLF$KVA$R-NH2] (Ac-[Nle]DVNPTLLF[S5]KVA[S5]R-NH2; staple 10-14), the “AUC,all” value came to 9065 ng·h/mL; the “AUC,inf” value was 9100 ng·h/mL; the “Cl” value is 5.67 mL/min/kg; the “Cmax, obs” value worked out at 18748 ng/mL. Besides, the “MRT” value amounted to 0.52 h, the “T1/2” value amounted to 0.54 h and the “Vss” value worked out at 0.178 L/kg.
For `CCCC[C@H](NC(C)=O)C(=O)N[C@@H](CC(=O)O)C(=O)N[C@H](C(=O)N[C@@H](CC(N)=O)C(=O)NC(C)(C)C(=O)N[C@H](C(=O)N[C@@H](CC(C)C)C(=O)N[C@@H](CC(C)C)C(=O)N[C@@H](Cc1ccccc1)C(=O)N[C@@]1(C)CCCC=CCCC[C@@](C)(C(=O)N[C@@H](CCCNC(=N)N)C(N)=O)NC(=O)[C@H](C)NC(=O)[C@H](C(C)C)NC(=O)[C@H](CCCCN)NC1=O)[C@@H](C)O)C(C)C` [SP-6, Ac-NleDVNAibTLLF$KVA$R-NH2] (Ac-[Nle]DVN[Aib]TLLF[S5]KVA[S5]R-NH2; staple 10-14), the “AUC,all” value was 10894 ng·h/mL; the “AUC,inf” value was 10976 ng·h/mL; the “Cl” value came to 4.65 mL/min/kg; the “Cmax, obs” value came out at 12564 ng/mL. In addition, the “MRT” value was 1.25 h, the “T1/2” value was 1.29 h and the “Vss” value was 0.348 L/kg.
With `CCCC[C@H](NC(C)=O)C(=O)N[C@@H](CC(=O)O)C(=O)N[C@H](C(=O)N[C@@H](CC(N)=O)C(=O)N1CCC[C@H]1C(=O)N[C@H](C(=O)N[C@@H](CC(C)C)C(=O)N[C@@H](CC(C)C)C(=O)N[C@@H](Cc1ccccc1)C(=O)N[C@@H](CC(C)C)C(=O)N[C@@H](CCCCN)C(=O)N[C@H](C(=O)N1CCC[C@H]1C(=O)N[C@@H](C)C(=O)N[C@@H](CCC(N)=O)C(N)=O)C(C)C)[C@@H](C)O)C(C)C` [SP-1, Ac-NleDVNPTLLFLKVPAQ-NH2], the “AUC,all” value is 1606 ng·h/mL; the “AUC,inf” value amounted to 1616 ng·h/mL; the “Cl” value turned out to be 31.22 mL/min/kg; the “Cmax, obs” value worked out at 7742 ng/mL. In addition, the “MRT” value was 0.13 h, the “T1/2” value turned out to be 0.16 h and the “Vss” value came out at 0.241 L/kg.
In the case of `CCCC[C@H](NC(C)=O)C(=O)N[C@@H](CC(=O)O)C(=O)N[C@H](C(=O)N[C@@H](CC(N)=O)C(=O)NC(C)(C)C(=O)N[C@H](C(=O)N[C@]1(C)CCCCCCC=CCCC[C@@](C)(C(=O)N[C@@H](CCCNC(=N)N)C(N)=O)NC(=O)[C@H](C)NC(=O)[C@H](C(C)C)NC(=O)[C@H](CCCCN)NC(=O)[C@H](CC(C)C)NC(=O)[C@H](Cc2ccccc2)NC(=O)[C@H](CC(C)C)NC1=O)[C@@H](C)O)C(C)C` [SP-15, Ac-NlcDVNAibT$r8LFLKVA$R-NH2] (Ac-[Nle]DVN[Aib]T[R8]LFLKVA[S5]R-NH2; staple 7-14), the “AUC,all” value turned out to be 23300 ng·h/mL; the “AUC,inf” value amounted to 25410 ng·h/mL; the “Cl” value was found to be 1.97 mL/min/kg; the “Cmax, obs” value is 26524 ng/mL. The “MRT” value amounted to 1.92 h, the “T1/2” value came to 1.49 h and the “Vss” value came out at 0.226 L/kg.
Take `CCCC[C@H](NC(C)=O)C(=O)N[C@@H](CC(=O)O)C(=O)N[C@H](C(=O)N[C@@H](CC(N)=O)C(=O)NC(C)(C)C(=O)N[C@H](C(=O)N[C@@H](CC(C)C)C(=O)N[C@@H](CC(C)C)C(=O)N[C@@H](Cc1ccccc1)C(=O)N[C@@H](CC(C)C)C(=O)N[C@@H](CCCCN)C(=O)N[C@H](C(=O)NC(C)(C)C(=O)N[C@@H](C)C(=O)N[C@@H](CCC(N)=O)C(N)=O)C(C)C)[C@@H](C)O)C(C)C` [SP-2, Ac-NleDVNAibTLLFLKVAibAQ-NH2] (Ac-[Nle]DVN[Aib]TLLFLKV[Aib]AQ-NH2): the “AUC,all” value is 3360 ng·h/mL; the “AUC,inf” value came to 3385 ng·h/mL; the “Cl” value came out at 15 mL/min/kg; the “Cmax, obs” value came to 8145 ng/mL. Besides, the “MRT” value came out at 0.41 h, the “T1/2” value worked out at 0.33 h and the “Vss” value turned out to be 0.366 L/kg.

Assay in the next data set: not given
For the compound `CCCC[C@H](NC(C)=O)C(=O)N[C@@H](CC(=O)O)C(=O)N[C@H](C(=O)N[C@@H](CC(N)=O)C(=O)NC(C)(C)C(=O)N[C@H](C(=O)N[C@@H](CC(C)C)C(=O)N[C@@H](CC(C)C)C(=O)N[C@@H](Cc1ccccc1)C(=O)N[C@@]1(C)CCCC=CCCC[C@@](C)(C(=O)N[C@@H](CCC(N)=O)C(N)=O)NC(=O)[C@H](C)NC(=O)[C@H](C(C)C)NC(=O)[C@H](CCCCN)NC1=O)[C@@H](C)O)C(C)C` (single isomer, unassigned) [SP-8 IV Dose], the “AUC,inf” value was determined as 46700 ng·h/mL, the “AUC,last” value is 46600 ng·h/mL, the “Cl” value is 1.05 mL/min/kg and the “MRT” value is 2 h. Also, the “T1/2” value amounted to 1 h and the “Vss” value was 0.105 L/kg.
For the compound `CCCC[C@H](NC(C)=O)C(=O)N[C@@H](CC(=O)O)C(=O)N[C@H](C(=O)N[C@@H](CC(N)=O)C(=O)NC(C)(C)C(=O)N[C@H](C(=O)N[C@@H](CC(C)C)C(=O)N[C@@H](CC(C)C)C(=O)N[C@@H](Cc1ccccc1)C(=O)N[C@@]1(C)CCCC=CCCC[C@@](C)(C(=O)N[C@@H](CCC(N)=O)C(N)=O)NC(=O)[C@H](C)NC(=O)[C@H](C(C)C)NC(=O)[C@H](CCCCN)NC1=O)[C@@H](C)O)C(C)C` (single isomer, unassigned) [SP-8 Subcutaneous], the “AUC,inf” value came out at 10200 ng·h/mL, the “AUC,last” value came out at 9690 ng·h/mL, the “Cl” value is 4.58 mL/min/kg and the “MRT” value was determined as 13 h. In addition, the “T1/2” value came to 10 h and the “Vss” value was found to be 3.629 L/kg.

For the origin of these results see patent US10022422B2, “Peptidomimetic macrocycles” (priority 2009, dated 2018).
